Source: patent US20160175214A1, “ANHYDROUS COSMETIC COMPOSITION FOR TOPICAL APPLICATION” (The Procter & Gamble Company, priority 2014, published 2016)

Assay: Solubility in hydrophobic anhydrous, glycol free, antiperspirant free stick formulations
Format: physicochemical
Description: Additional considerations regarding exemplary Vitamin B5 derivatives may apply. For example, in order to deliver Vitamin B5 (or a derivative thereof) from an anhydrous, hydrophobic, glycol free and antiperspirant free cosmetic stick, a corresponding matrix soluble form or derivative of Vitamin B5 must be used to achieve the desired benefits of hair softening, shave bump reduction and wound healing from shave cut damage. For example, if an incompatible or insoluble form of Vitamin B5 is used, such as panthenol, this will not form a homogenous one phase solution when the ingredients are blended and heated together from the melt.
As such, the Vitamin B5 derivative utilized should be soluble in the anhydrous, hydrophobic, glycol free and antiperspirant free matrix.

Solublility in hydrophobic Anhydrous, glycol free, antiperspirant free Stick formulations: Soluble
SMILES: CCOCC(C)(C)C(O)C(=O)NCCCO (stereo not shown) [Panthenyl Ethyl Ether]
